Assay results reported in PubChem BioAssay AID1963831 (Molecular Pharmacology Branch, DTP, NCI, 2024).

Tested on: 889142-216-R-J1-PDC complex spheroid viability
Experiment: Anticancer human tumor 889142-216-R-J1-PDC patient-derived bladder carcinoma cell line growth inhibition [POLQ]
Conditions: for IC50: curve of first compound; for viability, T/C: stronger effect = lower value
Method in brief: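 Patient-derived tumour cells were co-cultured with HUVEC and mesenchymal stem cells as multicellular spheroids at 37 °C. They were treated with POLQ inhibitors (novobiocin, ART-558, RP6685) alone or combined with other agents. Top concentrations were at or near clinical Cmax (otherwise 10 microM; SN-38 at 1 microM), decreasing in half-log steps.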

[1] = second compound 0.0316 µM, first compound 0.0316 µM
[2] = second compound 0.0316 µM, first compound 0.1 µM
[3] = second compound 0.0316 µM, first compound 0.316 µM
[4] = second compound 0.0316 µM, first compound 1 µM
[5] = second compound 0.0316 µM, first compound 3.16 µM
[6] = second compound 0.0316 µM, first compound 10 µM
[7] = second compound 0.1 µM, first compound 0.0316 µM
[8] = second compound 0.1 µM, first compound 0.1 µM
[9] = second compound 0.1 µM, first compound 0.316 µM
[10] = second compound 0.1 µM, first compound 1 µM
[11] = second compound 0.1 µM, first compound 3.16 µM
[12] = second compound 0.1 µM, first compound 10 µM
[13] = second compound 0.316 µM, first compound 0.0316 µM
[14] = second compound 0.316 µM, first compound 0.1 µM
[15] = second compound 0.316 µM, first compound 0.316 µM
[16] = second compound 0.316 µM, first compound 1 µM
[17] = second compound 0.316 µM, first compound 3.16 µM
[18] = second compound 0.316 µM, first compound 10 µM
[19] = second compound 1 µM, first compound 0.0316 µM
[20] = second compound 1 µM, first compound 0.1 µM
[21] = second compound 1 µM, first compound 0.316 µM
[22] = second compound 1 µM, first compound 1 µM
[23] = second compound 1 µM, first compound 3.16 µM
[24] = second compound 1 µM, first compound 10 µM
[25] = second compound 3.16 µM, first compound 0.0316 µM
[26] = second compound 3.16 µM, first compound 0.1 µM
[27] = second compound 3.16 µM, first compound 0.316 µM
[28] = second compound 3.16 µM, first compound 1 µM
[29] = second compound 3.16 µM, first compound 3.16 µM
[30] = second compound 3.16 µM, first compound 10 µM
[31] = second compound 10 µM, first compound 0.0316 µM
[32] = second compound 10 µM, first compound 0.1 µM
[33] = second compound 10 µM, first compound 0.316 µM
[34] = second compound 10 µM, first compound 1 µM
[35] = second compound 10 µM, first compound 3.16 µM
[36] = second compound 10 µM, first compound 10 µM
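Also: spheroids exposed to compounds for seven days.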
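For viability, T/C in this document: 100% = DMSO vehicle control viability.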

**Q.** `CC1COCCN1c1cc(-c2ccnn2C)c2ccnc(-c3ccn[nH]3)c2n1` (centres undefined) + COC1C(OC(N)=O)C(O)C(Oc2ccc3c(O)c(NC(=O)c4ccc(O)c(CC=C(C)C)c4)c(=O)oc3c2C)OC1(C)C was tested. Which IC50 (second compound 0.0316 µM) did it give?
**A.** Its IC50 is 213 nM.

**Q.** What about the IC50 (second compound 0.1 µM) of the same compound?
**A.** Its IC50 is 162 nM.

**Q.** And the IC50 (second compound 0.316 µM)?
**A.** The IC50 was 169 nM.

**Q.** And the IC50 (second compound 1 µM)?
**A.** Its IC50 is 293 nM.

**Q.** What about the IC50 (second compound 3.16 µM) of the same compound?
**A.** The IC50 was 337 nM.

**Q.** And the IC50 (second compound 10 µM)?
**A.** Its IC50 is 287 nM.

**Q.** And the viability, T/C [1]?
**A.** Its viability, T/C is 97.8%.

**Q.** And the viability, T/C [2]?
**A.** The viability, T/C was 56.2%.

**Q.** What about the viability, T/C [3] of the same compound?
**A.** The viability, T/C was 46.4%.

**Q.** What about the viability, T/C [4] of the same compound?
**A.** Its viability, T/C is 45%.

**Q.** And the viability, T/C [5]?
**A.** Its viability, T/C is 31.5%.

**Q.** And the viability, T/C [6]?
**A.** The viability, T/C was 30%.

**Q.** What about the viability, T/C [7] of the same compound?
**A.** Its viability, T/C is 79%.

**Q.** What about the viability, T/C [8] of the same compound?
**A.** Its viability, T/C is 53.3%.

**Q.** What about the viability, T/C [9] of the same compound?
**A.** Its viability, T/C is 40.4%.

**Q.** And the viability, T/C [10]?
**A.** The viability, T/C was 41.7%.

**Q.** What about the viability, T/C [11] of the same compound?
**A.** The viability, T/C was 34.1%.

**Q.** And the viability, T/C [12]?
**A.** The viability, T/C was 25.9%.

**Q.** What about the viability, T/C [13] of the same compound?
**A.** The viability, T/C was 90.5%.

**Q.** And the viability, T/C [14]?
**A.** The viability, T/C was 55.5%.

**Q.** What about the viability, T/C [15] of the same compound?
**A.** Its viability, T/C is 39.6%.

**Q.** And the viability, T/C [16]?
**A.** Its viability, T/C is 45.2%.

**Q.** What about the viability, T/C [17] of the same compound?
**A.** Its viability, T/C is 38.2%.

**Q.** What about the viability, T/C [18] of the same compound?
**A.** Its viability, T/C is 28.6%.

**Q.** And the viability, T/C [19]?
**A.** The viability, T/C was 77.2%.

**Q.** And the viability, T/C [20]?
**A.** Its viability, T/C is 58.6%.

**Q.** What about the viability, T/C [21] of the same compound?
**A.** Its viability, T/C is 48%.

**Q.** What about the viability, T/C [22] of the same compound?
**A.** Its viability, T/C is 40.9%.

**Q.** And the viability, T/C [23]?
**A.** The viability, T/C was 36.2%.

**Q.** What about the viability, T/C [24] of the same compound?
**A.** The viability, T/C was 25.9%.

**Q.** What about the viability, T/C [25] of the same compound?
**A.** The viability, T/C was 71.5%.

**Q.** What about the viability, T/C [26] of the same compound?
**A.** Its viability, T/C is 59.5%.

**Q.** And the viability, T/C [27]?
**A.** The viability, T/C was 48.8%.

**Q.** What about the viability, T/C [28] of the same compound?
**A.** The viability, T/C was 42.8%.

**Q.** And the viability, T/C [29]?
**A.** Its viability, T/C is 35.3%.

**Q.** And the viability, T/C [30]?
**A.** Its viability, T/C is 26.4%.

**Q.** What about the viability, T/C [31] of the same compound?
**A.** Its viability, T/C is 79%.

**Q.** What about the viability, T/C [32] of the same compound?
**A.** Its viability, T/C is 55.8%.

**Q.** What about the viability, T/C [33] of the same compound?
**A.** The viability, T/C was 49.7%.

**Q.** And the viability, T/C [34]?
**A.** The viability, T/C was 43.6%.

**Q.** What about the viability, T/C [35] of the same compound?
**A.** Its viability, T/C is 34.2%.

**Q.** And the viability, T/C [36]?
**A.** The viability, T/C was 27.5%.

**Q.** With `Nc1ccn(C2OC(CO)C(O)C2(F)F)c(=O)n1` (centres undefined) + Cc1cccc(N(C)C(=O)C2C(O)CCN2c2nc(C)cc(C(F)(F)F)c2C#N)c1 as the compound, how does the IC50 (second compound 0.0316 µM) read?
**A.** The IC50 was 177 nM.

**Q.** What about the IC50 (second compound 0.1 µM) of the same compound?
**A.** The IC50 was 138 nM.

**Q.** What about the IC50 (second compound 0.316 µM) of the same compound?
**A.** Its IC50 is 140 nM.

**Q.** And the IC50 (second compound 1 µM)?
**A.** The IC50 was 330 nM.

**Q.** And the IC50 (second compound 3.16 µM)?
**A.** Its IC50 is 213 nM.

**Q.** And the IC50 (second compound 10 µM)?
**A.** The IC50 was 99.1 nM.

**Q.** What about the viability, T/C [1] of the same compound?
**A.** Its viability, T/C is 67.7%.

**Q.** What about the viability, T/C [2] of the same compound?
**A.** Its viability, T/C is 49.5%.

**Q.** And the viability, T/C [3]?
**A.** The viability, T/C was 48.8%.

**Q.** What about the viability, T/C [4] of the same compound?
**A.** Its viability, T/C is 40.5%.

**Q.** And the viability, T/C [5]?
**A.** Its viability, T/C is 40.4%.

**Q.** What about the viability, T/C [6] of the same compound?
**A.** The viability, T/C was 31.4%.

**Q.** What about the viability, T/C [7] of the same compound?
**A.** The viability, T/C was 59%.

**Q.** And the viability, T/C [8]?
**A.** The viability, T/C was 53.9%.

**Q.** What about the viability, T/C [9] of the same compound?
**A.** Its viability, T/C is 44.5%.

**Q.** What about the viability, T/C [10] of the same compound?
**A.** The viability, T/C was 39.1%.

**Q.** What about the viability, T/C [11] of the same compound?
**A.** The viability, T/C was 44%.

**Q.** What about the viability, T/C [12] of the same compound?
**A.** Its viability, T/C is 36.3%.

**Q.** What about the viability, T/C [13] of the same compound?
**A.** Its viability, T/C is 55.6%.

**Q.** And the viability, T/C [14]?
**A.** The viability, T/C was 50.4%.

**Q.** And the viability, T/C [15]?
**A.** The viability, T/C was 46%.

**Q.** And the viability, T/C [16]?
**A.** The viability, T/C was 45%.

**Q.** What about the viability, T/C [17] of the same compound?
**A.** Its viability, T/C is 39.1%.

**Q.** What about the viability, T/C [18] of the same compound?
**A.** Its viability, T/C is 34%.

**Q.** What about the viability, T/C [19] of the same compound?
**A.** Its viability, T/C is 58.3%.

**Q.** And the viability, T/C [20]?
**A.** Its viability, T/C is 57.9%.

**Q.** And the viability, T/C [21]?
**A.** Its viability, T/C is 49.2%.

**Q.** What about the viability, T/C [22] of the same compound?
**A.** Its viability, T/C is 43.9%.

**Q.** What about the viability, T/C [23] of the same compound?
**A.** Its viability, T/C is 38.7%.

**Q.** What about the viability, T/C [24] of the same compound?
**A.** The viability, T/C was 32.5%.

**Q.** What about the viability, T/C [25] of the same compound?
**A.** Its viability, T/C is 54.7%.

**Q.** What about the viability, T/C [26] of the same compound?
**A.** The viability, T/C was 54.7%.

**Q.** And the viability, T/C [27]?
**A.** Its viability, T/C is 47.7%.

**Q.** And the viability, T/C [28]?
**A.** The viability, T/C was 43.7%.

**Q.** What about the viability, T/C [29] of the same compound?
**A.** The viability, T/C was 37.5%.

**Q.** And the viability, T/C [30]?
**A.** Its viability, T/C is 31.7%.

**Q.** And the viability, T/C [31]?
**A.** Its viability, T/C is 69.2%.

**Q.** And the viability, T/C [32]?
**A.** Its viability, T/C is 49%.

**Q.** What about the viability, T/C [33] of the same compound?
**A.** The viability, T/C was 43.9%.

**Q.** And the viability, T/C [34]?
**A.** Its viability, T/C is 43.8%.

**Q.** And the viability, T/C [35]?
**A.** The viability, T/C was 46.6%.

**Q.** And the viability, T/C [36]?
**A.** Its viability, T/C is 34%.
